These results are taken from patent publication US7265152B2 (ViroPharma Incorporated, priority 2002, dated 2007).

One may read the IC50 as the point on the concentration scale where inhibition reaches its midpoint.

Like-named read-outs stand apart in the source and are kept apart here.

The target in the assay is T1, HCV NS5B (Hepatitis C virus genotype 1b, UniProt Q9WMX2).
T1 construct: fusion protein, of which the carboxyl terminal 21 amino acids were removed to enhance its solubility; His tag (GSHHHHHH); made in house; host or cells: E. coli
In words: Inhibition of viral RNA-dependent RNA polymerase (RdRp), in vitro biochemical assay. The arrangement: species or system HCV genotype 1b virus (BB7). The note with it: read-out: HCV pol-BB7 IC50. The source says:
The HCV NS5B-directed RdRp activity was established and characterized in a standard in vitro biochemical assay using a purified HCV NS5B protein derived from the consensus sequence of a patient infected with HCV genotype 1b virus (BB7). (See Blight K J et al., Science. 2000, 290:1972-4). The NS5B consensus sequence was cloned and expressed in E. coli as a histidine tagged (GSHHHHHH) fusion protein, of which the carboxyl terminal 21 amino acids were removed to enhance its solubility.
In addition to evaluating their activity in the replicon assay, representative compounds within the scope of the present invention, as shown in examples 1-453 of Table 1, were also evaluated for antiviral activity using this assay. A measure of the inhibitory activity of compounds of the invention may be expressed as IC50 values. IC50 values represent the concentration of the compound at which 50% of the RdRp activity is inhibited. […] These low concentrations of test compounds required to achieve 50% inhibition of the RdRp activity indicate that the compounds of the invention are effective at inhibiting RNA synthesis by viral RdRp enzymes.

The mark [1] stands for this setting: HCV NS5B polymerase, BB7 (genotype 1b), values given as range classes A-D.
Setting [2] is: purified His-tagged NS5B (BB7), carboxyl terminal 21 amino acids removed.
The mark [3] stands for this setting: HCV NS5B RdRp, BB7 (genotype 1b), reported as class symbols.

Regarding `CNC(=O)c1c(-c2ccc(F)cc2)oc2cc(N(C)S(C)(=O)=O)c(OCc3nccn3Cc3ccccc3)cc12` [Example 399, 5-(1-Benzyl-1H-imidazol-2-ylmethoxy)-2-(4-fluoro-phenyl)-6-(methanesulfonyl-methyl-amino)-benzofuran-3-carboxylic acid methylamide], the IC50 under setting [1] was no more than 500 nM.
Take `CNC(=O)c1c(-c2ccc(F)cc2)oc2cc(-c3c(C)noc3C)c(OCCN3CCOCC3)cc12` [Example 433, 6-(3,5-Dimethyl-isoxazol-4-yl)-2-(4-fluoro-phenyl)-5-(2-morpholin-4-yl-ethoxy)-benzofuran-3-carboxylic acid methylamide]: the IC50 under setting [1] is no more than 500 nM.
As to `CNC(=O)c1c(-c2ccc(F)cc2)oc2ccc(OCC(F)(F)F)cc12` [Example 64, 2-(4-Fluoro-phenyl)-5-(2,2,2-trifluoro-ethoxy)-benzofuran-3-carboxylic acid methylamide], under setting [2], the IC50 is 500 to 5000 nM.
As to `CNC(=O)c1c(-c2ccc(F)cc2F)oc2cc(-c3c(C)noc3C)c(OC)cc12` [Example 400, 2-(2,4-Difluoro-phenyl)-6-(3,5-dimethyl-isoxazol-4-yl)-5-methoxy-benzofuran-3-carboxylic acid methylamide], the 50% inhibitory concentration (IC50) under setting [1] was no more than 500 nM.
Regarding `CNC(=O)c1c(-c2ccc(F)cc2)oc2cc(C(C)=O)ccc12` [Example 411, 6-Acetyl-2-(4-fluoro-phenyl)-benzofuran-3-carboxylic acid methylamide], under setting [1], the IC50 lay in the range of 500 to 5000 nM.
As for `CNC(=O)c1c(-c2ccc(F)cc2)oc2cc(Nc3cc(C)nn3C)c(OC(C)C)cc12` [Example 127, 6-(2,5-Dimethyl-2H-pyrazol-3-ylamino)-2-(4-fluoro-phenyl)-5-isopropoxy-benzofuran-3-carboxylic acid methylamide], the IC50 (HCV NS5B RdRp, BB7 genotype 1b) lay within 5000 to 30000 nM.
Consider `CNC(=O)c1c(-c2ccc(F)cc2)oc2cc(N(CC(C)O)S(C)(=O)=O)c(O)cc12` (centres unmarked) [Example 438, 2-(4-Fluoro-phenyl)-5-hydroxy-6-[(2-hydroxy-propyl)-methanesulfonyl-amino]-benzofuran-3-carboxylic acid methylamide], for which the IC50 under setting [3] is no more than 500 nM.
Take `CCN(CC)C(=O)COc1cc2c(C(=O)NC)c(-c3ccc(F)cc3)oc2cc1N(C)S(C)(=O)=O` [Example 413, 5-Diethylcarbamoyl-methoxy-2-(4-fluoro-phenyl)-6-(methanesulfonyl-methyl-amino)-benzofuran-3-carboxylic acid methylamide]: the IC50 under setting [1] was no more than 500 nM.
With `CNC(=O)c1c(-c2ccc(F)cc2)oc2cc(CN3CC(O)=C(C#N)C3=O)c(OC)cc12` [Example 431, 6-(3-Cyano-4-hydroxy-2-oxo-2,5-dihydro-pyrrol-1-ylmethyl)-2-(4-fluoro-phenyl)-5-methoxy-benzofuran-3-carboxylic acid methylamide], the IC50 under setting [1] was no more than 500 nM.
Regarding `CNC(=O)c1c(-c2ccccc2)oc2ccc(OC(F)(F)F)cc12` [Example 2, 2-Phenyl-5-trifluoromethoxy-benzofuran-3-carboxylic acid methylamide], the IC50 under setting [2] was in the range of 500 to 5000 nM.
For the compound `CNC(=O)c1c(-c2ccc(F)cc2)oc2cc(-c3nnco3)c(OC)cc12` [Example 449, 2-(4-Fluoro-phenyl)-5-methoxy-6-[1,3,4]oxadiazol-2-yl-benzofuran-3-carboxylic acid methylamide], the IC50 under setting [3] is no more than 500 nM.
Turning to `CNC(=O)c1c(-c2ccc(F)cc2)oc2cc(C#N)c(OC(C)C)cc12` [Example 129, 6-Cyano-2-(4-fluoro-phenyl)-5-isopropoxy-benzofuran-3-carboxylic acid methylamide], the IC50 (HCV NS5B RdRp, BB7 genotype 1b) is no more than 500 nM.
For `CNC(=O)c1c(-c2ccc(F)cc2)oc2cc(OCc3ccccc3)c(OC(C)C)cc12` [Example 194, 6-Benzyloxy-2-(4-fluoro-phenyl)-5-isopropoxy-benzofuran-3-carboxylic acid methylamide], for the setting “HCV NS5B RdRp, BB7, reported as range class”, the IC50 lay in the range of 500 to 5000 nM.
Regarding `CNC(=O)c1c(-c2ccc(F)cc2)oc2cc(N(CC(O)c3ccc(F)cc3)S(C)(=O)=O)c(O)cc12` (centres unmarked) [Example 451, 2-(4-Fluoro-phenyl)-6-{[2-(4-fluoro-phenyl)-2-hydroxy-ethyl]-methanesulfonyl-amino}-5-hydroxy-benzofuran-3-carboxylic acid methylamide], the IC50 under setting [3] was no more than 500 nM.
Consider `CNC(=O)c1c(-c2ccc(F)cc2)oc2cc(N3CCOCC3)c(OCc3ccncc3)cc12` [Example 128, 2-(4-Fluoro-phenyl)-6-morpholin-4-yl-5-(pyridin-4-ylmethoxy)-benzofuran-3-carboxylic acid methylamide], for which the IC50 (HCV NS5B RdRp, BB7 genotype 1b) is no more than 500 nM.
As to `CCc1cc2c(C(=O)NC)c(-c3ccc(F)cc3)oc2cc1C1CCCN1C(C)=O` (centres unmarked) [Example 440, 6-(1-Acetyl-pyrrolidin-2-yl)-5-ethyl-2-(4-fluoro-phenyl)-benzofuran-3-carboxylic acid methylamide], the IC50 under setting [3] was no more than 500 nM.
For `CNC(=O)c1c(-c2ccc(F)cc2)oc2cc(N(CC(C)O)S(C)(=O)=O)c(OC)cc12` (centres unmarked) [Example 439, 2-(4-Fluoro-phenyl)-6-[(2-hydroxy-propyl)-methanesulfonyl-amino]-5-methoxy-benzofuran-3-carboxylic acid methylamide], the IC50 under setting [3] is no more than 500 nM.
With `CNC(=O)c1c(-c2ccc(F)cc2)oc2cc(N(C)S(C)(=O)=O)c(OCC(C)(C)O)cc12` [Example 412, 2-(4-Fluoro-phenyl)-5-(2-hydroxy-2-methyl-propoxy)-6-(methanesulfonyl-methyl-amino)-benzofuran-3-carboxylic acid methylamide], the IC50 under setting [1] is no more than 500 nM.
Take `CNC(=O)c1c(-c2ccc(F)cc2)oc2cc(C3CCCN3C(=O)C3CC3)c(OC(C)C)cc12` (centres unmarked) [Example 448, 6-(1-Cyclopropanecarbonyl-pyrrolidin-2-yl)-2-(4-fluoro-phenyl)-5-isopropoxy-benzofuran-3-carboxylic acid methylamide]: the IC50 under setting [3] is no more than 500 nM.
Still for that read-out and setting: the same measure for `CNC(=O)c1c(-c2ccccc2)oc2ccc(O)cc12` [Example 453, 5-Hydroxy-2-phenyl-benzofuran-3-carboxylic acid methylamide]: 5000 to 30000 nM.
Turning to `CCOc1cc2c(C(=O)NC)c(-c3ccc(F)cc3)oc2cc1-c1c(C)noc1C` [Example 414, 6-(3,5-Dimethyl-isoxazol-4-yl)-5-ethoxy-2-(4-fluoro-phenyl)-benzofuran-3-carboxylic acid methylamide], under setting [1], the IC50 was no more than 500 nM.
Consider `CNC(=O)c1c(-c2ccc(F)cc2)oc2cc(-c3c(C)noc3C)c(OCCCN3CCCCC3)cc12` [Example 434, 6-(3,5-Dimethyl-isoxazol-4-yl)-2-(4-fluoro-phenyl)-5-(3-piperidin-1-yl-propoxy)-benzofuran-3-carboxylic acid methylamide], for which, under setting [1], the half-maximal inhibitory concentration (IC50) fell in the range of 500 to 5000 nM.
For `CNC(=O)c1c(-c2ccc(F)cc2)oc2cc(N(C)S(C)(=O)=O)c(-c3cccs3)cc12` [Example 450, 2-(4-Fluoro-phenyl)-6-(methanesulfonyl-methyl-amino)-5-thiophen-2-yl-benzofuran-3-carboxylic acid methylamide], under setting [3], the IC50 is no more than 500 nM.
